Like-named read-outs stand apart in the source and are kept apart here.
Tests used:
primary glial cultures = system: primary glial cultures; parameters: method as in PMID 31693218; details: primary glial cultures stimulated by LPS; cited from earlier work
[1] = system: SH-SY5Y neuroblastoma cells; test: Neuroprotection against rotenone/oligomycin A oxidative stress in SH-SY5Y cells (MTT); type: cell-based, human; details: compound 1 μM 24 h, then compound + R/O (30/10 μM) 24 h; for % Survival: basal = 100, R/O alone 53.4
Experimental: Human neuroblastoma SH-SY5Y cells were plated in 96-well clear multi-well plates (6 × 10^4 cells/well). The potential neuroprotective activity of compounds against OS was evaluated using the rotenone (30 μM) (SigmaAldrich, R8875) and oligomycin A (10 μM) (SigmaAldrich, 75351) (R/O) toxic mixture. Neuroprotection activity against Tau hyperphosphorylation was evaluated by using the okadaic acid (20 nM) model. Cells were pre-incubated with each compound (1 µM) for 24 h, and then treatments were removed and cells were incubated with compounds (1 µM) in the presence the corresponding toxic for additional 24 h. At the end of the experiments, viability was determined by the MTT method. Data were normalized from cell death induced by the toxic stimuli (considered as 100% cell death). Then, the protection percentages were calculated by subtracting from the death induced by toxic stimuli, the death in the presence of the compound.
(§1) The tetrazolium ring of MTT can be cleaved by active dehydrogenases to produce a formazan precipitate. At the end of the experiments, MTT (SigmaAldrich, M2003) stock solution was added to each well to achieve a final concentration of 0.5 mg/mL. Cells were incubated for 2 h. Thereafter, culture media was removed, and DMSO was added to each well to dissolve the formazan precipitate. Finally, absorbance was measured in a microplate reader (SPECTROstar nano, BMG Labtech) at 570 nm. Absorbance obtained in basal conditions was considered as 100% cell viability.
Thus, we selected a pre-incubation protocol to evaluate their potential neuroprotective capacity based on the NRF2-induction activity and direct antioxidant effect. Compound pre-incubation would induce the expression of antioxidant enzymes regulated by the phase II antioxidant response, thus promoting cells’ survival. The co-incubation period would also evaluate their capacity to trap free radicals produced by intoxicated mitochondria. SH-SY5Y neuroblastoma cells were treated with compounds (1 µM) during 24 h, and then cells were co-incubated with the corresponding compound at the same concentration and the R/O combination (30/10 µM) for additional 24 h. Melatonin, a well-known antioxidant natural neurohormone, was included as a positive control (1 µM). Previously reported racemic derivatives (rac-3a and (rac,R)-3b) and their precursors ((±)-6, R-6 and S-6) were included for comparative purposes at the same concentration.

[2] = parameters: method as in PMID 31693218; details: cited from earlier work; for DPPH Scavenging at 100 µM, %: compound 100 µM; for DPPH Scavenging at 1mM, %: compound 1 mM
NRF2 [3] = details: AREc32 cells, cited from earlier work; for CD (concentration required to double the specific luciferase activity): 24 h, Table S1, ref [3] of the supplement; for CD (concentration to double luciferase expression): previous results
[4] = Cytotoxicity in SH-SY5Y cell line (MTT); type: cell-based; details: human; SH-SY5Y, 10, 30 and 100 μM, 24 h, MTT; read-out: CC50
Experimental: SH-SY5Y human neuroblastoma cells were seeded in 96-well clear multi-well plates (6 × 10^4 cells/well). Cells were treated with increasing concentrations of compounds (10, 30 and 100 μM) for 24 h. Thereafter, viability was assessed by the MTT method. Cytotoxic concentration to observe 50% mortality (CC50) values for compounds were interpolated from dose–response curves represented as percentage of cell death vs. concentration of compound, fitted by non-linear regression and data interpolated to value 50.
as §1
In order to evaluate the potential pharmacological profile of new compounds, we first tested the potential neurotoxicity in the neuroblastoma SHSY5Y cell line. Toxicity was evaluated at increasing concentrations (10, 30 and 100 μM), and toxicity was measured as MTT reduction capability. CC50 values were calculated by non-linear regression of curves % survival vs. concentration (Supplementary Materials Figure S2). CGP37157 and previously studied racemic derivatives rac-3a and (rac,R)-3b were included as reference compounds. As previously described, LA is a non-neurotoxic compound at the concentrations texted.

[5] = system: mitochondrial lipoamide dehydrogenase; parameters: method as in PMID 8573188; details: cited from earlier work
NRF2 [6] = test: NRF2 induction, luciferase expression in AREc32 cell line; type: cell-based; details: AREc32 cells, 0.3, 3, 10 and 30 μM (LA: 0.1–0.6 mM), 24 h; mean ± SEM
Experimental: AREc32 cell line was kindly shared by Professor Roland Wolf (University of Dundee, UK). AREc32 cells were maintained in DMEM/glutamax/high glucose (Gibco, 61965-06, Madrid, Spain), supplemented with 1% penicillin–streptomycin (10,000 units) (SigmaAldrich, P4333, Madrid, Spain), geneticin (0.8 mg/mL) (Gibco, 11811-031) and 10% FBS (Gibco, 10270106), at 37 °C in a 5% CO2 air atmosphere. Cells were used from passage 4 to 18, and mycoplasma contamination was tested every 4 weeks. AREc32 cells were seeded in 96-well white plates (2 × 10^4 cells/well) for 24 h. Thereafter, cells were treated with each compound (0.3, 3, 10 and 30 µM) in duplicate for 24 h. Non-treated cells were included as basal luciferase expression and tert-butylhydroquinone (TBHQ, 10 μM) as positive control in each plate. Luciferase expression was evaluated by using the Luciferase Assay System (Promega, E1483, Madrid, Spain) by luminescence in an Orion II microplate luminometer (Berthold, Germany). Luciferase activity increase was normalized to basal conditions considered as 1. CD values (concentration required to double the luciferase activity) were calculated from dose–response curves of luciferase fold induction vs. compound concentration, fitted by non-linear regression and data interpolated to value 2.
To evaluate the influence of both stereogenic centers in the NRF2 induction capacity of aza-CGP37157-LA hybrids, we used the AREc32 cell line model by analyzing luciferase expression upon treatment with NRF2 inducers. AREc32 cells were exposed to increasing concentrations of tested compounds 7a–d (0.3, […], 10 and 30 μM) during 24 h; thereafter, luciferase expression was evaluated by luminescent assay to calculate the corresponding CD value (concentration to double luciferase expression). […] TBHQ was included as a positive control, and CGP37157, S- and R-LA, rac-3a and (rac,R)-3b and precursors derivatives (R-6 and S-6) were included for comparative purposes. […] Once R-LA is reduced, it might activate the phase II antioxidant response by acting as pro-oxidant over key Cys residues at KEAP1 to generate the corresponding lipoyl-cystinyl disulphide.

BV2 microglial cells = test: Nitrite production reduction in LPS-stimulated BV2 microglial cells (Griess); type: cell-based, mouse; details: 24 h pretreatment 0.3, 3, 10, 30 μM, then compound + LPS 100 ng/mL 18 h, Griess
Experimental: BV2 microglial cells were seeded at 2 × 10^4 cells/well and treated with compounds at increasing concentrations during 24 h in complete culture media. Then, treatments were removed, and BV2 cells were co-incubated with compounds and LPS (100 ng/mL) (O127:B8, SigmaAldrich, L3129) for additional 18 h in culture media supplemented with 1% FBS. Each plate included non-treated cells as basal nitrite production. Thereafter, nitrite production was determined by using the modified Griess assay. In brief, samples (150 μL) were mixed with DAPSONE (75 μL) (SigmaAldrich, A74807) and NEDA (75 μL) (SigmaAldrich, 33461), and the mixture was incubated at room temperature for 5 min. Light absorption was measured at 550 nm in a microplate reader (SPECTROstar nano, BMG Labtech). Basal nitrite production was referred to as 100% of nitrite production, and all data were normalized to the basal condition. Concentration needed to reduce nitrite production to 50% was calculated from graphical representation of percentage of nitrite production vs. compound concentration, and data were fitted by non-linear regression and interpolated to 50%.
Chronic neuroinflammation is considered a key pathological event in the early stages of AD development. Among immune cells present at CNS, microglia is related to host defense and tissue repair. Nonetheless, chronic neuroinflammation induced by an adverse environment of protein aggregates and exacerbated OS induces a neurotoxic activity of microglia that, finally, leads to neuronal death. […] To this end, we selected the BV2 microglial cell model stimulated by lipopolysaccharide (LPS), a TLR4 agonist that activates the pro-inflammatory response. CGP37157, R- and S-LA; analogue compounds rac-3a and (rac,R)-3b; and precursor derivatives 6 were included with comparative and reference purposes. Microglial BV2 cells were treated with increasing concentrations of the corresponding compound (0.3, 3, 10 and 30 µM) for 24 h following a pre-incubation protocol. Thereafter, treatments were exchanged by a combination of the corresponding compound at desired concentration and LPS (100 ng/mL) during 18 h. At the end of this period, nitrite production was evaluated by the Griess method as an indirect measurement of iNOS enzyme expression and BV2 activation.

SH-SY5Y cell line = system: SH-SY5Y cell line; parameters: method as in PMID 21989390; details: at the concentrations tested; cited from earlier work

**Q.** For O=C1CN(CCOC(=O)CCCC[C@@H]2CCSS2)C(c2ccccc2Cl)c2cc(Cl)ccc2N1 (mixture of isomers) [(rac,R)-3b], which “reduction of nitrite production” value (primary glial cultures) is on record?
**A.** The value was “not active”.

**Q.** What about the “% Protection” value [1] of the same molecule?
**A.** Its value is 59.3%.

**Q.** And the “% Survival” value [1]?
**A.** The value was 72.9 ± 3.5%.

**Q.** What about the “DPPH Scavenging at 100 µM, %” value [2] of the same molecule?
**A.** Its value is 8.7 ± 5.1 [19] %.

**Q.** And the “DPPH Scavenging at 1mM, %” value [2]?
**A.** The value was 30.7 ± 3.9 [19] %.

**Q.** What about the “CD (concentration required to double the specific luciferase activity)” value (NRF2 [3]) of the same molecule?
**A.** The value was 9.8 ± 1.6 µM.

**Q.** And the “CD (concentration to double luciferase expression)” value (NRF2 [3])?
**A.** The value was 9.8 ± 1.6 µM.

**Q.** And the CC50 at 24 h [4]?
**A.** Its CC50 at 24 h is 76.2 ± 4.8 µM.

**Q.** With O=C1CN(CCOC(=O)CCCCC2CCSS2)C(c2ccccc2Cl)c2cc(Cl)ccc2N1 (racemic) [rac-3a] as the molecule, how does the “reduction of nitrite production” value (primary glial cultures) read?
**A.** Its value is “able to reduce nitrite production”.

**Q.** And the “% Protection” value [1]?
**A.** Its value is 52.1%.

**Q.** What about the “% Survival” value [1] of the same molecule?
**A.** Its value is 69.0 ± 5.6%.

**Q.** What about the “DPPH Scavenging at 100 µM, %” value [2] of the same molecule?
**A.** The value was 15.1 ± 3.4 [19] %.

**Q.** What about the “DPPH Scavenging at 1mM, %” value [2] of the same molecule?
**A.** The value was 37.4 ± 3.8 [19] %.

**Q.** What about the “CD (concentration required to double the specific luciferase activity)” value (NRF2 [3]) of the same molecule?
**A.** The value was 14.8 ± 1.6 µM.

**Q.** And the “CD (concentration to double luciferase expression)” value (NRF2 [3])?
**A.** The value was 14.8 ± 1.6 µM.

**Q.** And the CC50 at 24 h [4]?
**A.** The CC50 at 24 h was 97.1 ± 2.3 µM.

**Q.** Which “rate of conversion to dihydrolipoic acid relative to S-LA” value [5] does the source give for O=C(O)CCCC[C@@H]1CCSS1 [(R) -Lipoic acid, (R)-Lipoic acid, reference compound] here?
**A.** Its value is 28 times.

**Q.** What about the “CD (concentration required to double the specific luciferase activity)” value (NRF2 [6]) of the same molecule?
**A.** Its value is > 600 µM.

**Q.** What about the IC50 (BV2 microglial cells) of the same molecule?
**A.** The IC50 was > 30 µM.

**Q.** With O=C(O)CCCCC1CCSS1 (centres unmarked) [LA, lipoic acid] as the molecule, how does the neurotoxicity (SH-SY5Y cell line) read?
**A.** The neurotoxicity was “non-neurotoxic”.
